Measured values as given in patent publication US20130225529A1, “PHOSPHO-ESTER DERIVATIVES AND USES THEREOF” (priority 2012, published 2013).
pIC50: −log10 of the molar value. Like-named read-outs stand apart in the source and are kept apart here. Each block holds one compound with its values, some of them ahead of it.

What was measured:
A431 skin cancer cells = assay: Cellular uptake in A431 cells (HPLC); conditions: 100 μM for 1 h
[1] = assay type: in vivo, mice; conditions: 55° C. hot plate, 30 min after single i.p. dose; 100 mg/kg, PI-PEG 1,600 mg/kg; control 1.91 ± 0.46
U87 cells = assay: 24-h growth inhibition of U87 glioblastoma cells; assay type: cell-based; conditions: Homo sapiens, U-87 MG; U87, 24 h
Description: U87 cells were treated with sulindac and ibuprofen as well as with the compounds. U87 is a human primary glioblastoma cell line, formally known as U-87 MG. This cell line has epithelial morphology, and is one of the most frequently used glioblastoma cell lines.

[2] = Pharmacokinetics after inhalational administration of PS; assay type: in vivo, mice; conditions: after 8 min inhalation, label = analyte
[3] = Pharmacokinetic study of phosphosulindac amide and sulindac, single oral dose; assay type: in vivo, mice; conditions: mouse, plasma, label = analyte
U87 glioblastoma cells = assay: Apoptosis (annexin V), PV and PGIA; assay type: cell-based, human; conditions: 24 h; PGIA 200 μM, PV 40 μM, alone or together
Description: Apoptosis: Cells (1.0×10^5 cells/well) were treated with or without PV, PGIA or valproic acid (VPA) for 24 or 48 h. After treatment, cells were trypsinized, stained with Annexin V-FITC (100× dilution, Invitrogen) and propidium iodide (PI) 0.5 μg/ml and the fluorescence intensity was analyzed by FACScaliber.

PGE2 production = PGE2 production by A549 cells; assay type: cell-based, human
SW480 colon cancer cells = assay: SW480 colon cancer xenografts, prevention protocol, PTI; assay type: in vivo, mice; conditions: oral gavage; PTI 10 mg/kg/d, indomethacin 2 mg/kg/d; end of study
A549 cells [4] = assay: Cell proliferation by BrdU staining; assay type: cell-based, human; conditions: 60 μM (indomethacin equimolar)
[5] = mouse, in vivo, ip
SW480 cells = assay: Cell cycle by PI staining; assay type: cell-based, human; conditions: 1×IC50 PTI; indomethacin at equimolar concentration; control 56.8
liver esterases = assay: Stability of PTI to purified porcine liver esterases; conditions: pig, half-life
porcine liver esterases = assay: as above; conditions: 4 IU/ml porcine liver esterase, 20 min
[6] = Gastrointestinal toxicity in rats
[7] = test system: A549 human non-small cell lung cancer xenografts; assay: A549 lung cancer xenografts, treatment protocol, PTI; assay type: in vivo, mice; conditions: 2 weeks, vs control
Description: Lung cancer treatment protocol: A549 cells (1.5×106) suspended in 100 μl of PBS (25% Hydrogel) were injected subcutaneously into both the left and right flanks of 5-6-week old female NOD SCID mice (Taconic Farms, Germantown, N.Y.). When the average tumor volume reached 100 mm3, the mice were divided into 3 groups: vehicle, PTI 10 mg/kg/d, and PTI 15 mg/kg/d (n=10/group); treatment lasted 2 weeks. At the end of the treatment, animals were euthanized and the xenografts were harvested.

[8] = test system: Salmonella typhimurium (TA98 and TA100); assay: Salmonella plate incorporation mutagenicity assay; conditions: 1.5 to 5000 μg/plate, with or without rat liver S9
COX-2 = COX-2 (Homo sapiens, UniProt P35354); assay: COX fluorescent inhibitor screening assay, COX-2; assay type: biochemical
Chain of COX-2 (P35354 18-604): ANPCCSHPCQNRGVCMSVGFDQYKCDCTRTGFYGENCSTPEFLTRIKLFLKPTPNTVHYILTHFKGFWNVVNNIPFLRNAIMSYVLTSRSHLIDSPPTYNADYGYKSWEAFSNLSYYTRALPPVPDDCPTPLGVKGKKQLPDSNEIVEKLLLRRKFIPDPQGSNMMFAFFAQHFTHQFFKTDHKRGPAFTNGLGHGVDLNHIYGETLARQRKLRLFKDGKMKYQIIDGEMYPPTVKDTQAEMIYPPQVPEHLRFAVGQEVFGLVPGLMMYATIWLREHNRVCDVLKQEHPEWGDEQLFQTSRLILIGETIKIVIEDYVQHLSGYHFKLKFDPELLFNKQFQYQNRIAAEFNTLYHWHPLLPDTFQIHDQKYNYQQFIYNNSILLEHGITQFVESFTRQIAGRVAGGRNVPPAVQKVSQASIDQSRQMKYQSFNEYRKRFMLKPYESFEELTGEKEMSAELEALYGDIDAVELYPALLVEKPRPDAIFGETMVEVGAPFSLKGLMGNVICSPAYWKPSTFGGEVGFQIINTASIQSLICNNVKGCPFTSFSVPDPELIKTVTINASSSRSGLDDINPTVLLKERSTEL

[9] = Pharmacokinetics of PTI and indomethacin, single i.p. dose
A549 cells [10] = assay: Apoptosis by annexin V and PI staining; assay type: cell-based, human; conditions: 72 h, control 7.5%
Description: After the A549 cells were treated with the test drug in 6-well plates for 72 h, all cell populations (suspended and attached) were collected and stained with annexin V-FITC and propidium iodide (PI) (Invitrogen, Carlsbad, Calif.) for 15 min. Annexin V-FITC and PI fluorescence intensities were analyzed by flow cytometry with a FACScalibur. Annexin V(+)/PI(−) cells are early apoptotic cells; annexin V(+)/PI(+) cells are late apoptotic cells; and annexin V(−)/PI(+) cells are necrotic cells.

A549 cells [11] = assay: Cellular uptake of PTI and indomethacin; assay type: in vitro ADME, human
Description: A549 cells were seeded in […] plates and allowed to grow as a monolayer. […] The incubation was terminated by washing the cell monolayer with complete medium and PBS. The cells were harvested by scraping, extracted by two-fold volume of acetonitrile and centrifuged at 13,000 rpm for 5 min. Drug levels were determined by HPLC.

[12] = Stability of PTI in complete media containing 10% serum; conditions: after 24 h
MDA-MB-231 = assay: Cell viability (MTT), MDA-MB-231; assay type: cell-based; conditions: Homo sapiens, MDA-MB-231, 72 h
p65 subunit of NF-κB = assay: NF-κB activation in A549 xenografts (p-p65 Ser276); assay type: in vivo, mice; conditions: vs controls
Description: (§1) Staining for PCNA and p-p65 (Ser276) was performed as described. Apoptosis was determined immunohistochemically by the terminal deoxynucleotidyl transferase-mediated deoxyuridine triphosphate-biotin nick end-labeling (TUNEL) assay.
To further explore the mechanism of action of PTI, we investigated the activation of NF-κB in the A549 lung tumor xenografts from the control and PTI-treated groups, by determining Ser276 phosphorylation of the p65 subunit of NF-κB. A shown in FIG. 28, compared to controls, PTI decreased the levels of p-p65 Ser276 in tumor xenografts by 90.0% (p=0.004).

COX-1 = molecular target: T1, COX-1 (Ovis aries, UniProt P05979); assay: COX fluorescent inhibitor screening assay, COX-1; assay type: biochemical
T1 construct: purchased Cayman Chemical Co
T1 sequence (P05979 25-600): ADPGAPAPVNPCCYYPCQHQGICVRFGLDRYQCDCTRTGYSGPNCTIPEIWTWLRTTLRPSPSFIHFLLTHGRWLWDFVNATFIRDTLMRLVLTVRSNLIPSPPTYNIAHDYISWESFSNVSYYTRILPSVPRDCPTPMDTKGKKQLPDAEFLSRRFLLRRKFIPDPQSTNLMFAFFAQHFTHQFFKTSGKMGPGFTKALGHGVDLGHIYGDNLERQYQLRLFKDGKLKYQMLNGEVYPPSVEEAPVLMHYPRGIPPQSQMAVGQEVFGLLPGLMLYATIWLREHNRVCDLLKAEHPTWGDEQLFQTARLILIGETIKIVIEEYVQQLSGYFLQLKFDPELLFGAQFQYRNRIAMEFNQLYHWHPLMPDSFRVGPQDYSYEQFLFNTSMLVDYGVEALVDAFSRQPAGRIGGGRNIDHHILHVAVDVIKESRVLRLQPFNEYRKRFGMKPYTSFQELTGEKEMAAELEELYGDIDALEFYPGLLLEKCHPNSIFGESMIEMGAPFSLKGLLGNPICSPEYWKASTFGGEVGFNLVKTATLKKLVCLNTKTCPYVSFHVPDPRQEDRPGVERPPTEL

A549 xenografts = assay: Immunohistochemistry of A549 xenografts (PCNA, TUNEL); assay type: in vivo, mice
Description: as §1

[13] = Cardiotoxicity, heart tissue histology; assay type: in vivo, mice; conditions: treated for 1.5 months, H&E
From the text: Heart tissue sections from mice treated with PTI for 1.5 months were examined and scored histologically, following H&E staining and light microscopy for tissue damage and for the presence of inflammatory cells.

HT29 = assay: Cell viability (MTT), HT29; assay type: cell-based; conditions: Homo sapiens, HT-29; HT29, 72 h
[14] = test system: AGS human gastric cancer cells; assay type: in vivo, mice; conditions: i.p. in corn oil, 3 weeks; PSA-B 200, PSA-G 200, PIA-B 160, PVA-T 100 mg/kg
[15] = test system: A431 human squamous cell carcinoma cells; assay type: in vivo, mice; conditions: hydrogel, topical, 2 weeks, estimated 80 mg/kg
[16] = Biodistribution of liposomal phospho-ibuprofen amide in mice; assay type: in vivo
[17] = test system: A549 human non-small lung cancer cells; assay: Orthotopic A549 lung tumor model in nude mice; assay type: in vivo; conditions: for reduction based on lung tumor weight / lung weight / reduction of lung cancer based on fluorescence: 200 mg/kg once a week for 8 weeks
β-catenin signaling = assay: β-catenin transcriptional activity (TOPflash) in HEK293T cells; assay type: cell-based; conditions: 5 μM each; control 1.23±0.11
skin papillomas = assay: DMBA/TPA-induced skin papillomas in FVB mice; assay type: in vivo
[18] = BALB/c nude, mouse, inhaled or intranasal, plasma
[19] = 66 mg/kg, single oral dose of sulindac equimolar to PSA, read-out: AUC0-24 h, sulindac administration

SMILES: CCOP(=O)(OCC)OCCCCOC(=O)C(C)c1ccc(CC(C)C)cc1 (centres unmarked) [PI 132]
fold increase of cellular level over the other two compounds (A431 skin cancer cells): at least 300 fold | cellular content (cellular extract) (A431 skin cancer cells; limit of detection 2.5 pmol): 750 pmol | latency values (mean±SD) [1]: 8.53 ± 0.81 s | pIC50 (U87 cells): 4.01

SMILES: CC1=C(CC(=O)O)c2cc(F)ccc2/C1=C\c1ccc(S(C)(=O)=O)cc1 [Sulindac sulfone 147, sulindac sulfone]
Tmax ([2]; BALB/c nude, mouse, inhaled or intranasal, lung, read-out: Tmax): 8 h | AUC [2, 18]: 142 µM·h | Cmax [2, 18]: 10.4 µM | Tmax ([2]; BALB/c nude, mouse, inhaled or intranasal, plasma, read-out: Tmax): 8 h | AUC(0-t) [3, 19]: 93.4 µM·h

SMILES: CCCC(CCC)C(=O)OCCCCOP(=O)(OCC)OCC [PV]
fold-increase of annexinV (+) cells (U87 glioblastoma cells): 3.0 fold

SMILES: CSc1ccc(/C=C2/C(C)=C(CC(=O)O)c3cc(F)ccc32)cc1 [Sulindac sulfide 146, sulindac sulfide]
AUC [2, 18]: 66.9 µM·h | Tmax ([2]; lung): 4 h | Tmax ([2]; plasma): 4 h | AUC(0-t) [3, 19]: 691 µM·h | AUC(0-t) ([3]; single oral dose 100 mg/kg PSA, read-out: AUC0-24 h, PSA administration): 17.9 µM·h

AUC0-24 h (for PTI: PTI plus its metabolite) [5]: 500 µM·h | peak plasma level [5]: 127 µM | time of peak plasma level [5]: 1 h
SMILES: COc1ccc2c(c1)c(CC(=O)O)c(C)n2C(=O)c1ccc(Cl)cc1 [Indomethacin, indomethacin, reference compound]
PGE2 levels induced by the calcium ionophore A23187 (PGE2 production): prevented the increase in PGE2 levels | reduction of tumor growth (SW480 colon cancer cells): no significant effect | decrease of proportion of BrdU positive cells (A549 cells [4]): 15% | proportion of cells in G0/G1 phase (SW480 cells): 57.7%

SMILES: CCOP(=O)(OCC)OCCc1ccc(OC(=O)Cc2c(C)n(C(=O)c3ccc(Cl)cc3)c3ccc(OC)cc23)cc1 [PTI, [1-(4-Chloro-benzoyl)-5-methoxy-2-methyl-1H-indol-3-yl]-acetic acid 4-[2-(diethoxy-phosphoryloxy)-ethyl]-phenyl ester]
PGE2 levels induced by the calcium ionophore A23187 (PGE2 production): prevented the increase in PGE2 levels | reduction of tumor growth (SW480 colon cancer cells): 69% | half-life (liver esterases; 2 IU/ml esterase): 5 min | half-life (liver esterases; 4 IU/ml esterase): 2 min | intact PTI remaining (porcine liver esterases): approximately 20% | reduction in gastrointestinal toxicity ([6]; PTI vs indomethacin): 60% | rats that developed ulcers ([6]; gavage 4 days, indomethacin 4.75 mg/kg/day, PTI 10 mg/kg/day): 40% | decrease of proportion of BrdU positive cells (A549 cells [4]): 96% | reduction of tumor volume ([7]; 10 mg/kg/d): 68% | reduction of tumor volume ([7]; 15 mg/kg/d): 91% | genotoxicity (reverse mutations) [8]: no significant genotoxicity | selectivity for COX-2 over COX-1 (COX-2): 12.6 fold | pIC50 (COX-2; purified COX-2): 4.14 | Cmax ([9]; mouse, in vivo, ip, 100 mg/kg): 46 µM | plasma detectability of PTI ([9]; single i.p. 100 mg/kg PTI): undetectable at 4 h | time of maximum concentration of PTI ([9]; single i.p. 100 mg/kg PTI): 2 h | annexin V+ cells (A549 cells [10]; 1.5×IC50): 12.3% | annexin V+ cells (A549 cells [10]; 2×IC50): 71.4% | cellular uptake, fold greater than indomethacin (A549 cells [11]; 6 h incubation, 50 to 200 μM): about 200 fold | cellular uptake, fold greater than indomethacin (A549 cells [11]; 16 h): about 230 fold | hydrolyzed [12]: 40% | pIC50 (MDA-MB-231): 4.64 | decrease of p-p65 Ser276 levels in tumor xenografts (p65 subunit of NF-κB): 90.0% | proportion of cells in G0/G1 phase (SW480 cells): 69.7% | pIC50 (COX-1): 3.04 | cell proliferation (PCNA) (A549 xenografts; PTI-treated tumors, controls 59.7±7.5%): 40.2±4.5% | apoptosis index (TUNEL) (A549 xenografts; control 3.3±0.3%): 5.8±1.2% | increase of apoptosis index (A549 xenografts; vs control): 75.8% | cardiotoxicity [13]: No differences in cardiotoxicity | pIC50 (HT29): 4.06

SMILES: CCOP(=O)(OCC)OCCCCNC(=O)C(C)c1ccc(CC(C)C)cc1 (centres unmarked) [Phospho-ibuprofen amide 105, Phosphoric acid diethyl ester 4-[2-(4-isobutyl-phenyl)-propionylamino]-butyl ester]
tumor growth inhibition [14]: 33.8% | tumor growth inhibition [15]: 51.5% | blood and tissue levels of intact compound ([16]; compared with corresponding carboxylic ester compound): significant blood and tissue levels of intact compound | biodistribution in major organs ([16]; liposomal, single 200 mg/kg i.v., 1 h): preferentially accumulated in lungs | latency values (mean±SD) [1]: 3.80 ± 0.46 s | reduction based on lung tumor weight / lung weight [17]: 80% | reduction of lung cancer based on fluorescence [17]: 95% | lung cancer on fluorescence images of lungs ([17]; liposomal, I.V.): essentially eliminated lung cancer

AUC [2, 18]: 49.5 µM·h | pIC50 (U87 cells): ≤ 3.00 | AUC(0-t) [3, 19]: 385 µM·h
SMILES: CC1=C(CC(=O)O)c2cc(F)ccc2/C1=C\c1ccc([S+](C)[O-])cc1 (centres unmarked) [Sulindac]

SMILES: NCCC[C@](N)(C(=O)O)C(F)F [DFMO, α-difluoromethylornithine, reference compound]
luciferase/renilla activity (β-catenin signaling): 1.18±0.01 | papilloma multiplicity, oral administration (skin papillomas; oral): failed to reduce papilloma multiplicity | reduction of tumor burden (average tumor volume/mouse) (skin papillomas; topical): ~90% | thickness of the epidermis (skin papillomas; topical): partial effect | reduction of tumor number (papillomas/mouse) (skin papillomas; topical application): merely stabilized disease progression

pIC50 (U87 cells): ≤ 3.00
SMILES: CC(C)Cc1ccc(C(C)C(=O)O)cc1 (centres unmarked) [Ibuprofen, reference compound]
reduction based on lung tumor weight / lung weight [17]: 19% | reduction of lung cancer based on fluorescence [17]: 57%
